This is an account of results in BindingDB's records for doi:10.1016/j.bmcl.2009.09.123 (Genomics Institute of The Novartis Research Foundation, 2009).

One may read the IC50 as the midpoint of a concentration-inhibition curve.

Test [1] in a line: Inhibition of Tel-fused KDR expressed in mouse BAF3 cells.
Test [2] is described as follows: Inhibition of Tel-fused LCK expressed in mouse BAF3 cells.
Test [3] is described as follows: Inhibition of Tel-fused SRC expressed in mouse BAF3 cells.
Test [4] in a line: Inhibition of Tel-fused LYN expressed in mouse BAF3 cells.

Structures are written as SMILES. Some results are limits rather than exact numbers.

`Cc1cccc(C(=O)Nc2ccc(C)c(Nc3nc4ccccc4n3-c3cc(N)ncn3)c2)c1` [N-(3-(1-(6-aminopyrimidin-4-yl)-1H-benzo[d]imidazol-2-ylamino)-4-methylphenyl)-3-methylbenzamide]: the IC50 in test [1] worked out at 280 nM; in test [2] it was 32 nM; in test [3], 490 nM; in test [4], 82 nM.

As to `Cc1ccc(NC(=O)c2ccc(C(C)(C)C)s2)cc1Nc1nc2ccccc2n1-c1cc(N)ncn1` [N-(3-(1-(6-aminopyrimidin-4-yl)-1H-benzo[d]imidazol-2-ylamino)-4-methylphenyl)-5-tert-butylthiophene-2-carboxamide], the IC50 in test [1] was determined as 4 nM; in test [2], 4 nM; in test [3], 4 nM; in test [4], 5 nM.

Consider `COc1cc(-n2c(Nc3cc(NC(=O)c4cccc(C(F)(F)F)c4)ccc3C)nc3ccccc32)ncn1` [N-(3-(1-(6-methoxypyrimidin-4-yl)-1H-benzo[d]imidazol-2-ylamino)-4-methylphenyl)-3-(trifluoromethyl)benzamide], for which the IC50 in test [1], in test [2], in test [3] and in test [4] was greater than 10000 nM throughout.

Regarding `Cc1ccc(NC(=O)c2cccc(C(F)(F)F)c2)cc1Nc1nc2ccccc2n1-c1cc(NC2CCN(C)CC2)ncn1` [N-(4-methyl-3-(1-(6-(1-methylpiperidin-4-ylamino)pyrimidin-4-yl)-1H-benzo[d]imidazol-2-ylamino)phenyl)-3-(trifluoromethyl)benzamide], the IC50 turned out to be 1710 nM in test [1], 881 nM in test [2], 1380 nM in test [3] and 1420 nM in test [4].

As to `Cc1ccc(NC(=O)c2cccc(C(F)(F)F)c2)cc1Nc1nc2ccccc2n1-c1cc(NCCN2CCN(C)CC2)ncn1` [N-(4-methyl-3-(1-(6-(2-(4-methylpiperazin-1-yl)ethylamino)pyrimidin-4-yl)-1H-benzo[d]imidazol-2-ylamino)phenyl)-3-(trifluoromethyl)benzamide], the IC50 in test [1] turned out to be 605 nM; in test [2], 56 nM; in test [3], 918 nM; in test [4], 204 nM.

In the case of `Cc1ccc(NC(=O)c2cccc(C(F)(F)F)c2)cc1Nc1nc2ccccc2n1-c1cc(NCCc2ccccn2)ncn1` [N-(4-methyl-3-(1-(6-(2-(pyridin-2-yl)ethylamino)pyrimidin-4-yl)-1H-benzo[d]imidazol-2-ylamino)phenyl)-3-(trifluoromethyl)benzamide], the IC50 came out at 549 nM in test [1], 171 nM in test [2], 524 nM in test [3] and 259 nM in test [4].

On to `Cc1ccc(NC(=O)c2cccc(C(F)(F)F)c2)cc1Nc1nc2ccccc2n1-c1cc(NCCCN2CCN(C)CC2)ncn1` [N-(4-methyl-3-(1-(6-(3-(4-methylpiperazin-1-yl)propylamino)pyrimidin-4-yl)-1H-benzo[d]imidazol-2-ylamino)phenyl)-3-(trifluoromethyl)benzamide], for which the half-maximal inhibitory concentration (IC50) is 582 nM in test [1], 25 nM in test [2], 601 nM in test [3] and 149 nM in test [4].

Take `Cc1ccc(NC(=O)c2cccc(C(F)(F)F)c2)cc1Nc1nc2ccccc2n1-c1cc(NCCCC2COCCN2)ncn1` (stereo unspecified) [N-(4-methyl-3-(1-(6-(3-(morpholin-3-yl)propylamino)pyrimidin-4-yl)-1H-benzo[d]imidazol-2-ylamino)phenyl)-3-(trifluoromethyl)benzamide]: the IC50 came to 318 nM in test [1], 40 nM in test [2], 600 nM in test [3] and 67 nM in test [4].

Regarding `Cc1ccc(NC(=O)c2cccc(C(F)(F)F)c2)cc1Nc1nc2ccccc2n1-c1cc(N2CCOCC2)ncn1` [N-(4-methyl-3-(1-(6-morpholinopyrimidin-4-yl)-1H-benzo[d]imidazol-2-ylamino)phenyl)-3-(trifluoromethyl)benzamide], the IC50 in test [1], in test [2], in test [3] and in test [4] was greater than 10000 nM each time.
